Measured values published in PubChem BioAssay AID1259407 (Chemical Carcinogenesis Research Information System (CCRIS), 2018).
Calls of active or inactive are those of the source. How the calls were made is not given here.

System: CCRIS mutagenicity, Ames/micronucleus/aberration tests
Experiment: CCRIS mutagenicity studies
Conditions: Method: STANDARD PLATE

## COc1cc(-c2ccc(N=C=O)c(OC)c2)ccc1N=C=O
Test System: AMES SALMONELLA TYPHIMURIUM, Strain/Indicator: TA98, Metabolic Activation: HAMSTER, LIVER, S-9, AROCLOR 1254
  mutagenic call: active; positive
Test System: AMES SALMONELLA TYPHIMURIUM, Strain/Indicator: TA98, Metabolic Activation: HAMSTER, LIVER, S-9
  mutagenic call: active; positive
Test System: AMES SALMONELLA TYPHIMURIUM, Strain/Indicator: TA98, Metabolic Activation: MOUSE, LIVER, S-9, AROCLOR 1254
  mutagenic call: active; positive
Test System: AMES SALMONELLA TYPHIMURIUM, Strain/Indicator: TA98, Metabolic Activation: MOUSE, LIVER, S-9
  mutagenic call: active; positive
Test System: AMES SALMONELLA TYPHIMURIUM, Strain/Indicator: TA98, Metabolic Activation: RAT, LIVER, S-9, AROCLOR 1254
  mutagenic call: active; positive
Test System: AMES SALMONELLA TYPHIMURIUM, Strain/Indicator: TA98, Metabolic Activation: RAT, LIVER, S-9
  mutagenic call: active; positive
Test System: AMES SALMONELLA TYPHIMURIUM, Strain/Indicator: TA100, Metabolic Activation: HAMSTER, LIVER, S-9, AROCLOR 1254
  mutagenic call: inactive; negative
Test System: AMES SALMONELLA TYPHIMURIUM, Strain/Indicator: TA100, Metabolic Activation: HAMSTER, LIVER, S-9
  mutagenic call: inactive; negative
Test System: AMES SALMONELLA TYPHIMURIUM, Strain/Indicator: TA100, Metabolic Activation: MOUSE, LIVER, S-9, AROCLOR 1254
  mutagenic call: inactive; negative
Test System: AMES SALMONELLA TYPHIMURIUM, Strain/Indicator: TA100, Metabolic Activation: MOUSE, LIVER, S-9
  mutagenic call: inactive; negative
Test System: AMES SALMONELLA TYPHIMURIUM, Strain/Indicator: TA100, Metabolic Activation: NONE
  mutagenic call: inactive; negative
Test System: AMES SALMONELLA TYPHIMURIUM, Strain/Indicator: TA1535, Metabolic Activation: HAMSTER, LIVER, S-9, AROCLOR 1254
  mutagenic call: inactive; negative
Test System: AMES SALMONELLA TYPHIMURIUM, Strain/Indicator: TA1535, Metabolic Activation: HAMSTER, LIVER, S-9
  mutagenic call: inactive; negative
Test System: AMES SALMONELLA TYPHIMURIUM, Strain/Indicator: TA1535, Metabolic Activation: MOUSE, LIVER, S-9, AROCLOR 1254
  mutagenic call: inactive; negative
Test System: AMES SALMONELLA TYPHIMURIUM, Strain/Indicator: TA1535, Metabolic Activation: MOUSE, LIVER, S-9
  mutagenic call: inactive; negative
Test System: AMES SALMONELLA TYPHIMURIUM, Strain/Indicator: TA1535, Metabolic Activation: NONE
  mutagenic call: inactive; negative
Test System: AMES SALMONELLA TYPHIMURIUM, Strain/Indicator: TA1535, Metabolic Activation: RAT, LIVER, S-9, AROCLOR 1254
  mutagenic call: inactive; negative
Test System: AMES SALMONELLA TYPHIMURIUM, Strain/Indicator: TA1535, Metabolic Activation: RAT, LIVER, S-9
  mutagenic call: inactive; negative
Test System: AMES SALMONELLA TYPHIMURIUM, Strain/Indicator: TA1537, Metabolic Activation: HAMSTER, LIVER, S-9, AROCLOR 1254
  mutagenic call: inactive; negative
Test System: AMES SALMONELLA TYPHIMURIUM, Strain/Indicator: TA1537, Metabolic Activation: HAMSTER, LIVER, S-9
  mutagenic call: inactive; negative
Test System: AMES SALMONELLA TYPHIMURIUM, Strain/Indicator: TA1537, Metabolic Activation: MOUSE, LIVER, S-9, AROCLOR 1254
  mutagenic call: inactive; negative
Test System: AMES SALMONELLA TYPHIMURIUM, Strain/Indicator: TA1537, Metabolic Activation: MOUSE, LIVER, S-9
  mutagenic call: inactive; negative
Test System: AMES SALMONELLA TYPHIMURIUM, Strain/Indicator: TA1537, Metabolic Activation: NONE
  mutagenic call: inactive; negative
Test System: AMES SALMONELLA TYPHIMURIUM, Strain/Indicator: TA1537, Metabolic Activation: RAT, LIVER, S-9, AROCLOR 1254
  mutagenic call: inactive; negative
Test System: AMES SALMONELLA TYPHIMURIUM, Strain/Indicator: TA1537, Metabolic Activation: RAT, LIVER, S-9
  mutagenic call: inactive; negative
Test System: AMES SALMONELLA TYPHIMURIUM, Strain/Indicator: TA1538, Metabolic Activation: HAMSTER, LIVER, S-9, AROCLOR 1254
  mutagenic call: active; positive
Test System: AMES SALMONELLA TYPHIMURIUM, Strain/Indicator: TA1538, Metabolic Activation: HAMSTER, LIVER, S-9
  mutagenic call: active; positive
Test System: AMES SALMONELLA TYPHIMURIUM, Strain/Indicator: TA1538, Metabolic Activation: MOUSE, LIVER, S-9, AROCLOR 1254
  mutagenic call: active; positive
Test System: AMES SALMONELLA TYPHIMURIUM, Strain/Indicator: TA1538, Metabolic Activation: MOUSE, LIVER, S-9
  mutagenic call: active; positive
Test System: AMES SALMONELLA TYPHIMURIUM, Strain/Indicator: TA1538, Metabolic Activation: RAT, LIVER, S-9, AROCLOR 1254
  mutagenic call: active; positive
Test System: AMES SALMONELLA TYPHIMURIUM, Strain/Indicator: TA1538, Metabolic Activation: RAT, LIVER, S-9
  mutagenic call: active; positive
Test System: E. COLI, Strain/Indicator: WP2 UVRA, Metabolic Activation: HAMSTER, LIVER, S-9, AROCLOR 1254
  mutagenic call: inactive; negative
Test System: E. COLI, Strain/Indicator: WP2 UVRA, Metabolic Activation: HAMSTER, LIVER, S-9
  mutagenic call: inactive; negative
Test System: E. COLI, Strain/Indicator: WP2 UVRA, Metabolic Activation: MOUSE, LIVER, S-9, AROCLOR 1254
  mutagenic call: inactive; negative
Test System: E. COLI, Strain/Indicator: WP2 UVRA, Metabolic Activation: MOUSE, LIVER, S-9
  mutagenic call: inactive; negative
Test System: E. COLI, Strain/Indicator: WP2 UVRA, Metabolic Activation: NONE
  mutagenic call: inactive; negative
Test System: E. COLI, Strain/Indicator: WP2 UVRA, Metabolic Activation: RAT, LIVER, S-9, AROCLOR 1254
  mutagenic call: inactive; negative
Test System: E. COLI, Strain/Indicator: WP2 UVRA, Metabolic Activation: RAT, LIVER, S-9
  mutagenic call: inactive; negative
